# Molecular target: T1, NDH-1MS (NDH-1_3), photosynthetic complex I; NdhF3 subunit (Thermosynechococcus vestitus, UniProt Q8DKF5)
# T1 construct: native complex from T. elongatus thylakoid membranes, C-terminal TwinStrep tag on CupS; NdhV not resolved; with CO2 hydration protein CupA; CO2 uptake protein CupS; NAD(P)H-quinone oxidoreductase chain 4-3; NAD(P)H-quinone oxidoreductase subunit 1; NAD(P)H-quinone oxidoreductase subunit 2; NAD(P)H-quinone oxidoreductase subunit 3; NAD(P)H-quinone oxidoreductase subunit 4L; NAD(P)H-quinone oxidoreductase subunit 6; NAD(P)H-quinone oxidoreductase subunit L; NAD(P)H-quinone oxidoreductase subunit S; NAD(P)H-quinone oxidoreductase subunit H; NAD(P)H-quinone oxidoreductase subunit I; NAD(P)H-quinone oxidoreductase subunit J; NAD(P)H-quinone oxidoreductase subunit K; NAD(P)H-quinone oxidoreductase subunit M; NAD(P)H-quinone oxidoreductase subunit N; NAD(P)H-quinone oxidoreductase subunit O
# T1 sequence (Q8DKF5 1-611): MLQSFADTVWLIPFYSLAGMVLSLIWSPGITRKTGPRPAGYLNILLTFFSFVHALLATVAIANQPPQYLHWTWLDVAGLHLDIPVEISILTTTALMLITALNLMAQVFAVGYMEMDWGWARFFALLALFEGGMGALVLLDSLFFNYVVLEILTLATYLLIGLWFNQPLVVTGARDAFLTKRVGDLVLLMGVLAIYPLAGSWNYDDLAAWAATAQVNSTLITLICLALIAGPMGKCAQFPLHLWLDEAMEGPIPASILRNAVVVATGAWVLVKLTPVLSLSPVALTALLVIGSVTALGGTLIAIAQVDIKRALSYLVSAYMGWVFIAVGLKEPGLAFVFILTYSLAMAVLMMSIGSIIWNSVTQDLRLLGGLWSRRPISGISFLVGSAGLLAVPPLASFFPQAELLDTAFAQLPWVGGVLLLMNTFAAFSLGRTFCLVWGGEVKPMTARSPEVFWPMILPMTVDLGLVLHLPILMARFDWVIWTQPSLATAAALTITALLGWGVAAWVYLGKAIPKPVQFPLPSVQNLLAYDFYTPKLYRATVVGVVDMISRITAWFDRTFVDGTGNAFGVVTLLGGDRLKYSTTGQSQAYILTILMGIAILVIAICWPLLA
# Experiment: cryo-EM structure, […] Å
# Type: binding
# Conditions: co-purified; motif with chlorophyll a in NdhF3
smiles,measurement,value
CC1=C(/C=C/C(C)=C/C=C/C(C)=C/C=C/C=C(C)/C=C/C=C(C)/C=C/C2=C(C)CCCC2(C)C)C(C)(C)CCC1 [β-carotene],"cryo-EM structure, 3.2 Å",NdhF3 binds a chlorophyll a/β-carotene motif that connects via His469 of NdhF3

# — publication PMC6981117, “Redox-coupled proton pumping drives carbon concentration in the photosynthetic complex I” (Nature Communications, 2020)
